Experimental findings from ChEMBL document CHEMBL5608215, “Development of amphipathic derivatives of thymol and carvacrol as potent broad-spectrum antibacterial agents” (Eur J Med Chem, 2024) are described below.

Series [1] can be described thus: Cytotoxicity against HUVEC cells assessed as cell viability at 32 ug/ml incubated for 24 hrs by CCK8 assay relative to control. It counts as toxicity, cell-based. The note with it: human, at 32 µg/mL, read-out: Activity.
Series [2] can be described thus: Toxicity in KM mouse assessed as histopathological abnormality in spleen upto 40 mg/kg, ip measured for 24 hrs by H and E staining based analysis. It counts as organism-based. The following applies: in vivo.
For a further series, the system named is Enterococcus faecalis. The series is described as follows: Antibacterial activity against Enterococcus faecalis ATCC29212 assessed as cell surface wrinkling at 8 times MIC by SEM analysis. It counts as functional, organism-based.
The subject of series [3] is Staphylococcus aureus. Briefly: Antibacterial activity against Staphylococcus aureus ATCC29213 infected in mouse model assessed as normalization of skin cell morphology at 5 to 10 mg/kg, sc measured after 24 hrs by H and E staining based analysis. The series is classed as functional, organism-based. The following applies: dose 5-10 mg/kg.
Series [4] relates to Staphylococcus aureus. The series is described as follows: Antibacterial activity against Staphylococcus aureus ATCC29213 infected in mouse model assessed as bacterial concentration at 10 mg/kg, sc measured after 24 hrs (reference value: 10^10.13 CFU/g). It counts as functional.
Series [5] is described as follows: Hemolytic activity against rabbit RBC incubated for 1 hr by absorbance based assay. The series is classed as toxicity, cell-based, Oryctolagus cuniculus, Erythrocyte. The note with it: rabbit red blood cells (erythrocytes).
Series [6] has as its system Staphylococcus aureus. The series is described as follows: Inhibition of antibiotic-resistance in Staphylococcus aureus ATCC29213 at 0.5 times of MIC incubated for 20 days. It counts as functional. The note with it: time 20.0 day.
The subject of series [7] is Staphylococcus aureus. Briefly: Antibacterial activity against Staphylococcus aureus ATCC29213 infected in mouse model assessed as bacterial load reduction in abscesses at 5 mg/kg, sc measured after 24 hrs relative to control. It counts as functional. More on the design: scale not given: the % may be the effect or the level left.
The test system of series [8] is Staphylococcus aureus. Briefly: Antibacterial activity against methicillin-resistant Staphylococcus aureus 21-5 by CLSI based serial dilution method. The series is classed as functional.
The nature of series [9]: Toxicity in KM mouse assessed as histopathological abnormality in liver upto 40 mg/kg, ip measured for 24 hrs by H and E staining based analysis. The note with it: in vivo. It counts as organism-based.
Series [10] has as its system Staphylococcus aureus. The series is described as follows: Antibacterial activity against Staphylococcus aureus ATCC25923 upto 32 ug/ml incubated for 16 to 18 hrs in presence of phosphatidylglycerol. The series is classed as functional, organism-based. The note with it: dose <= 32.0 µg/ml, time 16-18 hrs.
Series [11] can be described thus: Toxicity in KM mouse assessed as damage in spleen upto 40 mg/kg, ip measured for 24 hrs by H and E staining based analysis. It counts as organism-based. The note with it: in vivo.
The nature of series [12]: Toxicity in KM mouse assessed as animal survival upto 40 mg/kg, ip measured for 24 hrs. It counts as organism-based. The following applies: in vivo.
Series [13] deals with Staphylococcus aureus. The series is described as follows: Antibacterial activity against Staphylococcus aureus ATCC25923 upto 32 ug/ml incubated for 16 to 18 hrs in presence of cardiolipin. It counts as functional, organism-based. The note with it: dose <= 32.0 µg/ml, time 16-18 hrs.
Series [14] deals with Staphylococcus aureus. Briefly: Antibacterial activity against Staphylococcus aureus ATCC29213 assessed as cell surface disruption at 8 times MIC by SEM analysis. It counts as functional, organism-based.

Calls of active or inactive are those of the source. The calls are words filed in the database; no cut-off is given here.

`CCCCCCCNC(=O)C[N+](C)(C)CCCCOc1cc(C)ccc1C(C)C.[Br-]`: the viability at 24 h, 32 ug/ml in [1] worked out at 68.7%. Also, the Activity result in [2] is “Non-Toxic”; in the series on Staphylococcus aureus [4], ~1 10^7.67CFU/g; in the series on Staphylococcus aureus [7] it was 99.27%; in [9], “Non-Toxic”; in series [11], “Non-Toxic”; in series [12], “Non-Toxic”. Also, the result with Enterococcus faecalis, in the series with Staphylococcus aureus [3] and with Staphylococcus aureus [14] was Active. In addition, the HC50 at 1 h in series [5] was found to be 472 µg/mL. Besides, in the series with Staphylococcus aureus [6], the inhibition entry is “Active”. It took 4 µg/mL to inhibit growth against Staphylococcus aureus [8] (MIC). In addition, the result in the series with Staphylococcus aureus [10] and in the series with Staphylococcus aureus [13] was inactive.

As a reminder, the HC50 is the concentration giving 50% haemolysis. The MIC is the lowest concentration found to suppress growth.
